Like-named read-outs stand apart in the source and are kept apart here.
Key:
[1] = Pharmacokinetic experiment comparing oral gavage, intra-duodenal and intra-jejunal dosing in rats; type: in vivo, Wister-Hans rats
Description: FIG. 1 depicts the results of a pharmacokinetic experiment comparing oral and intra-duodenal gavage dosing of (R)-2-(3-(4-amino-3-(2-fluoro-4-phenoxyphenyl)-1H-pyrazolo[3,4-d]pyrimidin-1-yl)piperidine-1-carbonyl)-4-methyl-4-(4-(oxetan-3-yl)piperazin-1-yl)pent-2-enenitrile having E/Z ratio of about 9:1. The area under the curve (AUC) and the Cmax are plotted.
(R)-2-(3-(4-amino-3-(2-fluoro-4-phenoxyphenyl)-1H-pyrazolo[3,4-d]pyrimidin-1-yl)piperidine-1-carbonyl)-4-methyl-4-(4-(oxetan-3-yl)piperazin-1-yl)pent-2-enenitrile was dosed in 10 mg/mL aqueous citrate solution at 20 mg/kg to Wister-Hans rats. Anhydrous citric acid (0.5 equivalents) was added to the free base of (R)-2-(3-(4-amino-3-(2-fluoro-4-phenoxyphenyl)-1H-pyrazolo[3,4-d]pyrimidin-1-yl)piperidine-1-carbonyl)-4-methyl-4-(4-(oxetan-3-yl)piperazin-1-yl)pent-2-enenitrile. The experiment was repeated 3 times each with 2 separate arms, and one oral gavage arm was included in each study. Intra-jejunal (IJ) and intra-duodenal dosing was done in cannulated rats. In the first study, there was a 40-fold increase in the AUC for the IJ-dosed group compared to the PO group, and the metabolite present in the IJ-group was reduced 10-fold.

[2] = cited from earlier work
[3] = 20 mg/kg, intra-duodenal vs oral, FIG. 1
[4] = 20 mg/kg, intra-jejunal vs oral, FIG. 1

## CC(C)(C=C(C#N)C(=O)N1CCC[C@@H](n2nc(-c3ccc(Oc4ccccc4)cc3F)c3c(N)ncnc32)C1)N1CCN(C2COC2)CC1 [(R)-2-(3-(4-amino-3-(2-fluoro-4-phenoxyphenyl)-1H-pyrazolo[3,4-d]pyrimidin-1-yl)piperidine-1-carbonyl)-4-methyl-4-(4-(oxetan-3-yl)piperazin-1-yl)pent-2-enenitrile]
[1]; [3]
  AUC, ID dosing compared to PO dosing: increased
  Cmax, ID dosing compared to PO dosing: increased
[1]; [4]
  AUC, IJ dosing compared to PO dosing: substantially increased
  Cmax, IJ dosing compared to PO dosing: substantially increased
[1]; first study, 20 mg/kg in 10 mg/mL aqueous citrate solution, intra-jejunal vs oral gavage
  increase in the AUC for the IJ-dosed group compared to the PO group: 40 fold

## C=CC(=O)N1CCC[C@@H](n2nc(-c3ccc(Oc4ccccc4)cc3)c3c(N)ncnc32)C1 [ibrutinib, 1-[(3R)-3-[4-Amino-3-(4-phenoxyphenyl)-1H-pyrazolo[3,4-d]pyrimidin-1-yl]piperidin-1-yl]prop-2-en-1-one]
[2]; administered intraduodenally
  bioavailability as determined by AUC: 100%
[2]; direct oral administration
  bioavailability as determined by AUC: 21%

Source: US20180193274A1, “COMPOSITIONS FOR ILEO-JEJUNAL DRUG DELIVERY” (Principia Biopharma Inc., priority 2014, published 2018)
